{"source": "patent EP2587940B1", "about": "“PARTICLES COMPRISING HYDROPHOBIC POLYMER AND HYDROPHOBIC PHENOLIC COMPOUND” (Unilever N.V., priority 2010, dated 2012)", "key": {"[1]": {"system": "acetylated LDL metabolism", "conditions": "Whitman S.C. et al. 2005; cited from earlier work"}, "[2]": {"assay": "Water dispersibility, USP 2 dissolution test", "format": "physicochemical", "conditions": "deionised water with 0.05% Tween 80", "procedure": "The aim of the experiment is to see how well formulated curcumin disperses in aqueous media. […] Curcumin determined included both free as well as complexed or encapsulated curcumin. […] Samples were withdrawn at specified time interval (5, 15, 30, 60, 90, 120 and 180 mins) and analysed using UV-vis spectroscopic method."}, "pH stability in buffers": {"assay": "pH stability in buffers", "format": "physicochemical", "conditions": "for non-degraded: after 6 hours, 20 microgram per mL curcumin", "description": "(§1) Enhanced stability of colloidal dispersion of curcumin-zein to various pH and UV irradiation was studied as follows."}, "[3]": {"assay": "Photostability under UV irradiation", "format": "physicochemical", "conditions": "UV irradiation 302 nm", "description": "as §1"}, "[4]": {"assay": "Stability in simulated gastro-intestinal conditions (dissolution test, gastric and intestinal phase)", "format": "physicochemical", "conditions": "gastric phase pH 2 with pepsin in first 2 hours", "procedure": "To study the stability of the colloidal dispersion of particles according to the invention in simulated gastro-intestinal conditions, a dissolution test was carried out in simulated gastric and intestinal phases using following conditions. This test indicates whether the particles are suitable to be used as a delivery system for phenolic compounds to the human body. Zein-curcumin particles (5:1 wt/wt) were used. • For gastric phase: Water with 0.05% Tween , pH 2 in first 2 hours with pepsin • For intestinal phase: pH adjusted to 6.8 and bile salts and pancreatin added to the medium. • Sampling point: (5, 15, 30, 60, 90, 120 and 180 mins)."}}, "data": [{"smiles": "COc1ccc(-c2cc(=O)c3c(OC)c(OC)c(OC)c(OC)c3o2)cc1OC", "note": "[nobiletin]", "values": [{"measurement": "inhibited acetylated LDL metabolism", "setting": "[1]", "result": "50-72%"}]}, {"smiles": "COc1cc(/C=C/C(=O)CC(=O)/C=C/c2ccc(O)c(OC)c2)ccc1O", "note": "[pure curcumin, Curcumin]", "values": [{"measurement": "cumulative release", "setting": "[2]; 0 min", "result": 0, "unit": "%"}, {"measurement": "cumulative release", "setting": "[2]; 15 min", "result": "18.1 ± 1.3", "unit": "%"}, {"measurement": "cumulative release", "setting": "[2]; 30 min", "result": "19.1 ± 1.4", "unit": "%"}, {"measurement": "cumulative release", "setting": "[2]; 60 min", "result": "22.6 ± 1.7", "unit": "%"}, {"measurement": "cumulative release", "setting": "[2]; 90 min", "result": "25.7 ± 1.9", "unit": "%"}, {"measurement": "cumulative release", "setting": "[2]; 120 min", "result": "27.8 ± 2.0", "unit": "%"}, {"measurement": "cumulative release", "setting": "[2]; 180 min", "result": "32.8 ± 2.7", "unit": "%"}, {"measurement": "non-degraded", "setting": "pH stability in buffers; pH 1.2", "result": 56.0, "unit": "%"}, {"measurement": "non-degraded", "setting": "pH stability in buffers; pH 4.5", "result": 69.7, "unit": "%"}, {"measurement": "non-degraded", "setting": "pH stability in buffers; pH 6.7", "result": 67.6, "unit": "%"}, {"measurement": "non-degraded", "setting": "pH stability in buffers; pH 7.4", "result": 66.6, "unit": "%"}, {"measurement": "colour", "setting": "pH stability in buffers; pH 9.0", "result": "turned red in colour"}, {"measurement": "non-degraded", "setting": "pH stability in buffers; pH 9.0", "result": 52.9, "unit": "%"}, {"measurement": "unchanged curcumin level", "setting": "[3]; 0 min", "result": 100, "unit": "%"}, {"measurement": "unchanged curcumin level", "setting": "[3]; 5 min", "result": 93.6, "unit": "%"}, {"measurement": "unchanged curcumin level", "setting": "[3]; 10 min", "result": 88.4, "unit": "%"}, {"measurement": "unchanged curcumin level", "setting": "[3]; 15 min", "result": 66.7, "unit": "%"}, {"measurement": "unchanged curcumin level", "setting": "[3]; 30 min", "result": 59.6, "unit": "%"}, {"measurement": "release", "setting": "[4]; 0 min, then intestinal phase pH 6.8 with bile salts and pancreatin", "result": 0, "unit": "%"}, {"measurement": "release", "setting": "[4]; 5 min, then intestinal phase pH 6.8", "result": "18.0 ± 2.0", "unit": "%"}, {"measurement": "release", "setting": "[4]; 15 min, then intestinal phase pH 6.8", "result": "18.3 ± 0.3", "unit": "%"}, {"measurement": "release", "setting": "[4]; 30 min, then intestinal phase pH 6.8", "result": "20.9 ± 2.2", "unit": "%"}, {"measurement": "release", "setting": "[4]; 60 min, then intestinal phase pH 6.8", "result": "21.7 ± 1.9", "unit": "%"}, {"measurement": "release", "setting": "[4]; 90 min, then intestinal phase pH 6.8", "result": "38.1 ± 0.5", "unit": "%"}, {"measurement": "release", "setting": "[4]; 120 min, then intestinal phase pH 6.8", "result": "36.9 ± 1.4", "unit": "%"}, {"measurement": "release", "setting": "[4]; 150 min, then intestinal phase pH 6.8", "result": "37.6 ± 2.3", "unit": "%"}, {"measurement": "release", "setting": "[4]; 180 min, then intestinal phase pH 6.8", "result": "37.0 ± 1.2", "unit": "%"}]}]}
